The values that follow come from ChEMBL document CHEMBL1147522, “1,2,3,4-tetrahydrocarbazoles as 5-HT6 serotonin receptor ligands” (Bioorg Med Chem Lett, 2004).

This assay addresses 5-hydroxytryptamine receptor 6 (Homo sapiens, UniProt P50406). Put plainly: Ability to displace [3H]LSD from human 5-hydroxytryptamine 6 receptor transiently expressed in COS-7 cells. Format: cell-based.

Sequence of 5-hydroxytryptamine receptor 6 (P50406 whole entry): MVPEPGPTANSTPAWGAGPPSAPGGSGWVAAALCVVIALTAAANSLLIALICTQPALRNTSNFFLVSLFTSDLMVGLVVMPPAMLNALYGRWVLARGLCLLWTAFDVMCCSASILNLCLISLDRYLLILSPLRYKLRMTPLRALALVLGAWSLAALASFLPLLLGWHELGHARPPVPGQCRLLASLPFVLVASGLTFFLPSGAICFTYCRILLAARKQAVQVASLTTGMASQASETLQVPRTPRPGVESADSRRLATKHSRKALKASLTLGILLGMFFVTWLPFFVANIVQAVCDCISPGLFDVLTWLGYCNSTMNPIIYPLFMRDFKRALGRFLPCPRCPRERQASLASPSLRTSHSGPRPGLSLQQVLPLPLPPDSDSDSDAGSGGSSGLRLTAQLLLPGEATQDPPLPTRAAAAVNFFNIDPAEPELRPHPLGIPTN

For orientation: Ki means a dissociation constant, usually derived from enzyme kinetics or from competition with a known ligand. Higher therefore signals lower affinity. `COc1ccc2c(c1)c1c(n2S(=O)(=O)c2ccc(N)cc2)CCCC1` displayed a Ki of 29 nM.

Turning to `COc1ccc2c(c1)c1c(n2S(=O)(=O)c2ccc(N)cc2)CCCC1CN(C)C` (stereo unspecified), the Ki was 2 nM.

As to `COc1ccc2c(c1)c1c(n2S(=O)(=O)c2ccc3ccccc3c2)CCCC1CN(C)C` (stereo unspecified), the inhibition constant (Ki) amounted to 5.1 nM.

In turn, `COc1ccc2c(c1)c1c(n2C(=O)c2ccc(N)cc2)CCCC1` registered a Ki of 6000 nM.

`COc1ccc2c(c1)c1c(n2S(=O)(=O)c2ccc(C)cc2)CCCC1CN(C)C` (stereo unspecified) returned a Ki of 9.4 nM.

Compound `Nc1ccc(S(=O)(=O)n2c3ccccc3c3ccccc32)cc1` yielded a Ki of 49 nM.

For the compound `COc1ccc(OC)c(S(=O)(=O)n2c3c(c4cc(OC)ccc42)C(CN(C)C)CCC3)c1` (stereo unspecified), the Ki was determined as 0.3 nM.

With `COc1ccc2c(c1)c1c(n2S(=O)(=O)c2ccc(I)cc2)CCCC1CN(C)C` (stereo unspecified), the inhibitory constant (Ki) was 2.4 nM.

On to `COc1ccc2c(c1)c1c(n2S(=O)(=O)Cc2ccccc2)CCCC1CN(C)C` (stereo unspecified), for which the Ki turned out to be 200 nM.

As for `COc1ccc(S(=O)(=O)n2c3c(c4cc(OC)ccc42)C(CN(C)C)CCC3)cc1` (stereo unspecified), the Ki worked out at 47 nM.

In the case of `COc1ccc2c(c1)c1c(n2S(=O)(=O)c2ccc(Cl)cc2)CCCC1CN(C)C` (stereo unspecified), the affinity corresponds to a Ki of 5 nM.

`COc1ccc2c(c1)c1c(n2Cc2ccc(N)cc2)CCCC1` displayed an inhibition constant (Ki) of 6000 nM.

For the compound `COc1ccc2c(c1)c1c(n2S(=O)(=O)c2cccc3cccnc23)CCCC1CN(C)C` (stereo unspecified), the inhibition constant Ki was found to be 7.6 nM.

Take `COc1ccc2c(c1)c1c(n2S(=O)(=O)c2cccc3ccccc23)CCCC1CN(C)C` (stereo unspecified): the affinity corresponds to a Ki of 14 nM.

As to `CN(C)CC1CCCc2c1c1ccccc1n2Cc1ccccc1` (stereo unspecified), the Ki amounted to 64 nM.

Take `COc1ccc2c(c1)c1c(n2S(=O)(=O)c2ccccc2)CCCC1CN(C)C` (stereo unspecified): the affinity corresponds to a Ki of 2.3 nM.
